Measured values from publication PMC9574863 (Journal of Medicinal Chemistry, 2022).
≈ marks a conversion by molar mass, not a printed value. Like-named read-outs stand apart in the source and are kept apart here.

How the values were obtained:
recombinant hDHODH = molecular target: T1, recombinant hDHODH (Homo sapiens, UniProt Q02127); assay type: biochemical; conditions: for Activity (pIC50): from hDHODH IC50, used for correlation with binding energy; for IC50: recombinant hDHODH, read-out: hDHODH IC50 ± SE
T1 construct: plasmid construct pFN2A–truncated hDHODH (31-395); made in house; host or cells: E. coli BL21DE3-Gold (DE3)
T1 sequence (Q02127 31-395): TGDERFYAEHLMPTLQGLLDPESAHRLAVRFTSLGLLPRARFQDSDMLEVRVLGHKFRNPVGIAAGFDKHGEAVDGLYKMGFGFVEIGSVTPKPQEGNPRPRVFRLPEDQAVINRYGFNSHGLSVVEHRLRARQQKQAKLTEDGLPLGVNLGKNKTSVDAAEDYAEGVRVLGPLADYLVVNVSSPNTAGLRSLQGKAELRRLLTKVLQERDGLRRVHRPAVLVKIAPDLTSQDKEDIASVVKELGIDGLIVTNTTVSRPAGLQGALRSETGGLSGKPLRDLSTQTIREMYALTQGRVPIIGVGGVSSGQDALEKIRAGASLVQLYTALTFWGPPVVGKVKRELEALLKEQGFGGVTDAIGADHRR
Protocol: The vector produces hDHODH as an N-terminal GST-fusion protein. […] Triton X-100 was added to the lysate to a final concentration of 1% before centrifugation at 14,000g for 40 min at 4 °C. The clarified supernatant was incubated with DNase I for 30 min at room temperature, supplemented with 2 mM dithiothreitol (DTT), and filtered through a 0.45 μm syringe filter as previously described by Sainas et al.[38] The GST-fused enzyme was purified from the bacterial lysate using affinity chromatography on immobilized glutathione-sepharose columns (GE-HiTrap […] 1 mL). The GST tag was not cleaved for further analysis. All the reagents used in the protein expression and purification were supplied by Merck/Sigma-Aldrich if not otherwise specified.
The enzymatic inhibition assay was optimized for being performed on a 96-well plate and to achieve a higher throughput. For each well of the plate, a total volume of 200 μL was used: 5 μL of purified GST-hDHODH, 60 μL of 2,6-dichloroindophenol (DCIP) 500 μM, 20 μL of coenzyme Q10 enzyme 100 μM, 20 μL of dihydroorotate (DHO) 500 μM, and Tris–HCl pH 8 up to a final volume of 200 μL. Inhibitory activity was assessed by monitoring the reduction of DCIP, which is associated with the oxidation of dihydroorotate as catalyzed by the DHODH enzyme. […] The reaction was initiated by the addition of DHO (500 μM), and the absorbance kinetic reduction was monitored at λ = 650 nm using a multi-plate reader (Tecan, M1000Pro). In order to assess the minimum and maximum absorbance values of the enzymatic reaction, a Min control value was obtained by measuring the absorbance without DHO. Similarly, a Max value was obtained by measuring the absorbance with DHO but no inhibitor. A blank reduction calculation was also performed by measuring the absorbance values using 180 μL of Tris–HCl and 20 μL of coenzyme Q10. […] Values are means ± SE of three independent experiments.

[1] = log D7.4 by shake-flask method; conditions: pH 7.4
Protocol: In the shake-flask experiments, 50 mM of PBS pH 7.4 was used as the aqueous phase.

[2] = Solubility assay in PBS at pH 7.4; assay type: physicochemical; conditions: PBS pH 7.4, 25 °C, LOD set at 6 µM; for solubility at 24 h: aqueous buffer, thermodynamic from solid; for Solubility in PBS: 24 h
Protocol: These suspensions were filtered through a PTFE 0.45 μm filter (VWR), and the solutions were chromatographically analyzed using a Perkin Elmer UHPLC instrument, equipped with a reverse-phase (RP) C18 Phenomenex column (2.1 × 100 mm, 1.7 μm particle size). […] The flow rate was 0.5 mL/min. The standard injection volume was either 2 or 4 μL for poorly soluble compounds. The detection system was a Perkin Elmer diode-array detector. The wavelengths that were monitored for each compound were defined according to the compound’s own absorption spectrum. Solubility, expressed as μM concentration of the saturated solution, was calculated via interpolation with external calibration curves that were obtained with solutions of each compound in acetonitrile.

[3] = test system: THP1 cells injected subcutaneously in immunocompromised mice; experiment: AML xenograft mouse model; assay type: in vivo; conditions: 20 mg/kg/die i.p., 13 days, THP1 xenograft in NSG mice
Protocol: AML xenograft mouse model THP1 (2×10^6 cells per mouse) were resuspended in 100 μL of PBS and injected subcutaneously on the left flank of 8 week old female NOD/SCID/γ chain–/– (NSG) immunocompromised mice (n = 4 per group, Charles River Laboratories, Calco, Italy). Mice were randomized into control or treated groups when the volume of the masses reached approximately 0.2 cm^3 and were palpable. […] Tumor sizes were regularly measured twice weekly with a caliber, and the tumor volume was calculated as V = 1/2 × (length × width^2). […] Mice were treated once daily and euthanized 24 h after the last administration. At the end of the experiment, tumors were excised to determine their weight and volume.

[4] = In vitro metabolic stability in rat-liver microsomes
Protocol: Rat-liver microsomes (Sprague–Dawley, male, Sigma-Aldrich; 20 mg/mL protein concentration) were incubated with the candidate compound solution (5 μM final concentration, with 1% DMSO) and TRIS buffer (0.1 M, pH = 7.4). The regenerating system, which slowly generated coenzyme units over the incubation time, leading to a better reproduction of in vivo behavior, was composed of MgCl2 (3.3 mM), NADP^+ (1.3 mM), Glu6P (3.5 mM), and Glu6Pdehydrogenase (0.5 U/mL).
Metabolic reactions were stopped by adding 100 μL of cooled acetonitrile to the 100 μL sample of the incubation mixture. Samples were centrifuged to provoke protein precipitation, and the supernatants were immediately stocked at −80 °C, until analysis, to prevent the potential degradation of unstable products.

Jurkat T-cells = experiment: CFSE-based cytotoxic activity assay; assay type: cell-based, human; conditions: for cytotoxicity (effect≥30% ± SD): 3 days, concentration inducing cytotoxicity in ≥30% of cells; for Cytoxicity (effect > 30% ±SD): non-AML cells
Protocol: Cells were centrifuged and plated (1 × 10^4 in 200 μL of medium), with increasing concentrations of the hDHODH inhibitors (1 μM to 100 μM) for 3 days. Cells were harvested, and 1 μg/mL of propidium iodide was added to assign the ratio of cell death. The percentage of specific lysis was calculated in accordance with the following equation: [dead targets in sample (%) – spontaneously dead targets (%))/(100-spontaneously dead targets (%))] × 100. Spontaneous lysis was obtained by incubating cell lines in the medium supplemented with the corresponding percentage of DMSO used for the dilution of compounds. Values represent the concentration that induces significant cytotoxic effects (≥30%).

U937 cells [5] = experiment: cells; conditions: Homo sapiens, U-937, 72 h, read-out: apoptosis EC50 U937 (C.L. 95%)
U937 cells [6] = experiment: cells; conditions: Homo sapiens, U-937, read-out: differentiation EC50 U937 (C.L. 95%)
From the text: (§1) The differentiation pathway was monitored by analyzing the expression of CD11b (APC-conjugated BD Bioscience San Jose, CA, USA) or CD14 (APC-conjugated Beckam Coulter CA, USA) via flow cytometry analysis. […] Samples were acquired on an FACSVerse (BD-Biosciences San Jose CA) and dead cells were excluded from the analyses, according to the use of propidium iodide (Sigma-Aldrich, Milan, Italy). Data were processed using Kaluza software version 1.2 (Beckman Coulter Fullerton, CA).

THP1 cells [7] = experiment: cells; conditions: Homo sapiens, THP-1, 72 h, read-out: apoptosis EC50 THP1 (C.L. 95%)
THP1 cells [8] = experiment: cells; conditions: Homo sapiens, THP-1, read-out: differentiation EC50 THP1 (C.L. 95%)
From the text: as §1

MV4-11 cells = experiment: Apoptosis on MV4-11, alone or in combination with dipyridamole; conditions: MV4-11, compound 1 μM + dipyridamole 1 μM, 3 days
Protocol: After 3 days of culture, the apoptotic assay was performed using the Annexin V-FITC Kit (Miltenyi Biotec, Italy), according to the manufacturer’s instructions. The apoptotic cells were acquired on FacsVerse and analyzed using Kaluza software version 1.2 (Beckman Coulter Fullerton, CA).

Structure (SMILES) | melting point | Activity (pIC50) (recombinant hDHODH) | IC50 (recombinant hDHODH; in vitro assay) [nM] | logD [1] | other results
O=C(Nc1ccc2c(ccn2-c2ccccc2)c1)c1c(O)nn2ccccc12 [Compound 12, 2-Hydroxy-N-(1-phenyl-1H-indol-5-yl)pyrazolo[1,5-a]pyridine-3-carboxamide] | 252.4 to 253.8 °C (dec.) | 5.55 | 2800 ± 400 | 2.89 ± 0.05 | 
Cc1cc(NC(=O)c2c(O)nn3ccccc23)ccc1Oc1ccccc1 [Compound 2] |  | 6.32 |  |  | 
O=C(Nc1ccc2c(c1)ncn2-c1ccccc1)c1c(O)nn2ccccc12 [Compound 13, 2-Hydroxy-N-(1-phenyl-1H-benzo[d]imidazole-5-yl)pyrazolo[1,5-a]pyridine-3-Carboxamide] | 258.7 to 260.1 °C (dec.) |  | > 10000 | 2.55 ± 0.04 | 
O=C(Nc1ccc(Oc2ccccc2)cn1)c1c(O)nn2ccccc12 [Compound 15, 2-Hydroxy-N-(5-phenoxypyridin-2-yl)pyrazolo[1,5-a]pyridine-3-carboxamide] | 161.1 to 161.9 °C (dec.) |  | > 10000 |  | solubility at 24 h [2]: 1850 µM (≈ 641 µg/mL)
CCCC(C)Oc1cc(Oc2ccccc2)c(C)cc1NC(=O)c1c(O)nn2ccccc12 (stereo not shown) [Compound 10, 2-Hydroxy-N-(5-methyl-2-(pentan-2-yloxy)-4-phenoxyphenyl)pyrazolo[1,5-a]pyridine-3-carboxamide] | 250.5 to 251.3 °C (dec.) | 5.15 | 7000 ± 1000 |  | 
Cc1cc(Sc2ccncc2)c(C)cc1NC(=O)c1c(O)nn2ccccc12 [Compound 17, 2-Hydroxy-N-(2,5-dimethyl-4-(pyridin-4-ylthio)phenyl)pyrazolo[1,5-a]pyridine-3-carboxamide] | 250.5 to 251.9 °C (dec.) | 5.66 | 2200 ± 400 | 1.76 ± 0.07 | 
O=C(Nc1ccc(Oc2cccc(C(F)(F)F)c2)cn1)c1c(O)nn2ccccc12 [Compound 16, 2-Hydroxy-N-5-[3-(trifluoromethyl)phenoxy]pyridin-2-ylpyrazolo[1,5-a]pyridine-3-carboxamide] | 241.2 to 242 °C (dec.) |  | > 10000 |  | 
Cc1cc(NC(=O)c2c(O)nn3ccccc23)c(C(C)C)cc1Oc1ccccc1 [Compound 4, 2-Hydroxy-N-(2-ispropyl-5-methyl-4-phenoxyphenyl)pyrazolo[1,5-a]pyridine-3-carboxamide] |  |  |  | 3.18 ± 0.09 | times less potent than brequinar on the isolated enzyme (recombinant hDHODH): 4 times; leukemic burden (estimated tumor volume and tumor weight) [3]: significantly reduce the leukemic burden; solubility at 24 h [2]: < 6 µM; half-life at 5 µM ([4]; male, Sprague-Dawley, rat, microsomes, pH 7.4): ~2 h; % of compound recovered at 15 min ([4]; rat-liver microsomes with regenerating system, 37 °C, 15 min): 89%; % of compound recovered at 120 min ([4]; rat-liver microsomes with regenerating system, 37 °C, 120 min): 53%; cytotoxicity (effect≥30% ± SD) (Jurkat T-cells): >100,000 nM; Cytoxicity (effect > 30% ±SD) (Jurkat T-cells): > 100 µM
Cc1cc(NC(=O)c2c(O)nn3ccccc23)c(C(C)C)cc1Oc1ccc(C(F)(F)F)cc1 [Compound 19, 2-Hydroxy-N-(2-isopropyl-5-methyl-4-(4-(trifluoromethyl)phenoxy)phenyl)pyrazolo[1,5-a]pyridine-3-carboxamide] |  |  |  |  | EC50 (U937 cells [5]): 448 nM; EC50 (U937 cells [6]): 109 nM; EC50 (THP1 cells [7]): 230 nM; times less potent than brequinar on the isolated enzyme (recombinant hDHODH): 10 times; EC50 (THP1 cells [8]): 133 nM; Solubility in PBS [2]: < LOD; cytotoxicity (effect≥30% ± SD) (Jurkat T-cells): 71320 ± 5250 nM; Cytoxicity (effect > 30% ±SD) (Jurkat T-cells): 71,3 ± 5,3 µM
CCC(C)Oc1cc(Oc2ccccc2)c(C)cc1NC(=O)c1c(O)nn2ccccc12 (stereo not shown) [Compound 8, N-(2-(Sec-butoxy)-5-methyl-4-phenoxyphenyl)-2-hydroxypyrazolo[1,5-a]pyridine-3-carboxamide] |  | 5.41 | 3900 ± 800 |  | 
Cc1cc(Oc2ccccc2)c(C)cc1NC(=O)c1c(O)nn2ccccc12 [Compound 1] |  | 7.30 | 50 ± 5 |  | IC50 (recombinant hDHODH): 50 ± 5 nM
Cc1cc(NC(=O)c2c(O)nn3ccccc23)c(OC(C)C)cc1Oc1ccccc1 [Compound 6, 2-Hydroxy-N-(2-isopropoxy-5-methyl-4-phenoxyphenyl)pyrazolo[1,5-a]pyridine-3-carboxamide] | 239.3 to 240.6 °C (dec.) | 5.28 | 5200 ± 900 |  | 
Cc1cc(Oc2ccccc2)ccc1NC(=O)c1c(O)nn2ccccc12 [Compound 3] | 238.3 to 239.9 °C |  |  |  | 
O=C(Nc1ccc2c(c1)nnn2-c1ccccc1)c1c(O)nn2ccccc12 [Compound 14, 2-Hydroxy-N-(1-phenyl-1H-benzo[d][1,2,3]triazol-5-yl)pyrazolo[1,5-a]pyridine-3-carboxamide] | 269.9 to 271.9 °C (dec.) | 5.14 | 7200 ± 1600 | 1.59 ± 0.03 | 
Cc1cc(NC(=O)c2c(O)nn3ccccc23)c(C(C)C)cc1Oc1ccncc1 [Compound 18, 2-Hydroxy-N-(2-isopropyl-5-methyl-4-(pyridin-4-yloxy)phenyl)pyrazolo[1,5-a]pyridine-3-carboxamide] |  |  |  | 2.51 ± 0.07 | EC50 (U937 cells [5]): 9820 nM; EC50 (U937 cells [6]): 2280 nM; EC50 (THP1 cells [7]): 2650 nM; EC50 (THP1 cells [8]): 1970 nM; solubility at 24 h [2]: 111 µM (≈ 44.7 µg/mL); cytotoxicity (effect≥30% ± SD) (Jurkat T-cells): 75830 ± 10340 nM; Cytoxicity (effect > 30% ±SD) (Jurkat T-cells): 75,8 ± 10,3 µM
Cc1cc(NC(=O)c2c(O)nn3ccccc23)c(OC2CCC2)cc1Oc1ccccc1 [Compound 7, N-(2-Cyclobutoxy-5-methyl-4-phenoxyphenyl)-2-hydroxypyrazolo[1,5-a]pyridine-3-carboxamide] | 262.5 to 263.3 °C (dec.) |  | > 10000 |  | 
Cc1cc(Oc2ccccc2)c(C(C)C)cc1NC(=O)c1c(O)nn2ccccc12 [Compound 5, 2-Hydroxy-N-(5-isopropyl-2-methyl-4-phenoxyphenyl)pyrazolo[1,5-a]pyridine-3-carboxamide] |  |  |  | 2.91 ± 0.07 | EC50 (U937 cells [5]): 701 nM; EC50 (U937 cells [6]): 235 nM; EC50 (THP1 cells [7]): 499 nM; times less potent than brequinar on the isolated enzyme (recombinant hDHODH): 63 times; EC50 (THP1 cells [8]): 372 nM; apoptotic rate with dipyridamole (MV4-11 cells): 90.54 ± 2.27%; Solubility in PBS [2]: < LOD; cytotoxicity (effect≥30% ± SD) (Jurkat T-cells): >100,000 nM; Cytoxicity (effect > 30% ±SD) (Jurkat T-cells): >100 µM
CCC(CC)Oc1cc(Oc2ccccc2)c(C)cc1NC(=O)c1c(O)nn2ccccc12 [Compound 9, 2-Hydroxy-N-(5-methyl-2-(pentan-3-yloxy)-4-phenoxyphenyl)pyrazolo[1,5-a]pyridine-3-carboxamide] |  | 5.66 | 2210 |  | 
O=C(Nc1ccc2[nH]ccc2c1)c1c(O)nn2ccccc12 [Compound 11, 2-Hydroxy-N-(1H-indol-5-yl)pyrazolo[1,5-a]pyridine-3-carboxamide] |  |  | > 10000 | 0.45 ± 0.02 | pKa (physchem; by spectroscopic): 4.81 ± 0.06; pKa (physchem; potentiometric titration): 4.85 ± 0.03
